Experiments:
[1] = tested on: estrogen-stimulated growth of the immature mouse uterus; settings: 30 (EMTPVNPG), 29 (AFPep); cited from earlier work
[2] = earlier work; 30 (EMTPVNPG); 29 (AFPep); cited from earlier work
[3] = tested on: estrogen-stimulated growth of the immature mouse uterus; assay: immature mouse uterine growth inhibition assay; format: in vivo, mouse (Swiss Webster female); settings: for effect on the growth inhibition activity of AFPep when combined: combination with AFPep (Figure 2A, 2C); for dose-response behaviour of inhibition of estrogen-stimulated uterine growth: peptide alone, range of doses i.p. (Figure 1)

EMTPVNPG
dose-response behaviour in anti-estrotrophic assay (earlier work) [1]: biphasic dose-response curve
shelf life [2]: very short shelf life

cyclo[EKTOVGOGN] FS (lariat or depsi)
effect on the growth inhibition activity of AFPep when combined [3]: enhanced the activity of AFPep
dose-response behaviour of inhibition of estrogen-stimulated uterine growth [3]: no activity at any dose

cyclo[EKTOVNOGN] FS (lariat or depsi)
effect on the growth inhibition activity of AFPep when combined [3]: decreased the activity of AFPep
dose-response behaviour of inhibition of estrogen-stimulated uterine growth [3]: little activity at any dose
